Test results reported in patent publication USRE30548E, “Peptides which effect release of hormones” (The Salk Institute for Biological Studies, priority 1979, dated 1981).
Bridge positions count the residues as written; N and C are the ends. Ends that are not written are not given here.

Columns and labels:
[1] = system: glucagon secretion; assay: In vivo bioassay: inhibition of glucagon release in anesthetized rats (portal vein plasma); parameters: species or system Sprague-Dawley-CD rats; details: in vivo rat, via external jugular vein; somatostatin = 100
Description: (§1) An investigation of the effect of somatostatin, dihydrosomatostatin, (as controls) and the peptides of the invention to inhibit the release of glucagon and insulin was made as follows:
(§2) In vivo Bioassay: Male Sprague-Dawley-CD rats weighing 180-200 g housed in temperature and humidity controlled quarters with 14h light and 10h dark (light 0700-[…]) were used in all experiments. Animals were fed a standard ration and tap water ad libitum. Experiments were carried out at least 5 days after arrival of rats from the supplier between the hours 1400 to 1600. After ether anesthesia, peptides or saline were administered in a volume of 0.2 ml. via the external jugular vein. Animals remained anesthetized until the time of blood collection from the portal vein. […]
(§3) Plasma was stored at -20° C. for insulin and glucagon determinations. Insulin levels were determined by the method of Herbert et al, J. […]. Endocr. […] Glucagon was determined by the method of Faloona and Unger, in Jaffe et al ed., Methods of Hormone Radioimmunoassay, Academic Press, New York, 1974, p. […] was determined by the glucose oxidase method, utilizing a Beckman Glucose Analyzer.
(§4) All experiments were carried on in a randomized block design. Following analysis of variance difference between treatments were determined by the multiple range tests of Dunnett and Duncan. Potency values were calculated from four or six point bioassays.

[2] = system: insulin secretion; assay: In vivo bioassay: inhibition of insulin release in anesthetized rats (portal vein plasma); parameters: species or system Sprague-Dawley-CD rats; details: in vivo rat, via external jugular vein; somatostatin = 100
Description: as §1, §2, §3, §4

somatostatin (AGCKNFFWKTFTSC; disulfide 3-14; ends not checked; UniProt P61278 103-116, looked up)
percent effectiveness for inhibiting secretion of Glucagon, somatostatin taken as the base [1]: 100% | percent effectiveness for inhibiting secretion of Insulin, somatostatin taken as the base [2]: 100%
